Assay results: publication PMC7596511 (Scientific Reports, 2020)
Entries after “also recorded” stand apart in the source; their conditions may differ.

Key:
[1] = system: Anopheles gambiae s.s. females; assay: Dual-choice Y-tube olfactory meter repellency test; type: in vivo
Description: A glass Y-tube (1.6 cm i.d., 12-cm base , two 8-cm arms at a 45° angle from one another) olfactory meter described in our previous study was used in this experiment. […] The control cotton ball with triethyl citrate (without citronellal) was inserted into the other jar. Teflon tube was used to connect all parts of Y-tube olfactory meter. Fresh air was produced by an air pump at a rate of 200 ± 10 ml/min, and purified by active carbon and silicone before flowing into the jars. The headspace of citronellal volatile was combined with the purified air and went through one arm of the Y-tube while purified air without citronellal went through the other arm. The base of the Y-tube was connected to an air collection bottle. One hundred female A. gambiae s.s. were individually released in the air collection bottle (2-cm i.d., 8-cm high), where behavioral responses were monitored and recorded over a 300 s period. The collecting jar, Y-tubes, air collection bottle were cleaned with hot water (> 60 °C) after every 10 individuals were tested, and the cotton roll was renewed every 2 h. The olfactory test was repeated five times.

AgamORC7 = target: T1, AgamORC7 (Anopheles gambiae, UniProt Q7QCC7); assay: Fluorescence competitive binding test (FCBT), 1-NPN probe; parameters: species or system Anopheles gambiae s.s.
T1 construct: His-tag (cleaved yes); made in house; host or cells: Escherichia coli BL21 (DE3)
T1 sequence (Q7QCC7 1-478): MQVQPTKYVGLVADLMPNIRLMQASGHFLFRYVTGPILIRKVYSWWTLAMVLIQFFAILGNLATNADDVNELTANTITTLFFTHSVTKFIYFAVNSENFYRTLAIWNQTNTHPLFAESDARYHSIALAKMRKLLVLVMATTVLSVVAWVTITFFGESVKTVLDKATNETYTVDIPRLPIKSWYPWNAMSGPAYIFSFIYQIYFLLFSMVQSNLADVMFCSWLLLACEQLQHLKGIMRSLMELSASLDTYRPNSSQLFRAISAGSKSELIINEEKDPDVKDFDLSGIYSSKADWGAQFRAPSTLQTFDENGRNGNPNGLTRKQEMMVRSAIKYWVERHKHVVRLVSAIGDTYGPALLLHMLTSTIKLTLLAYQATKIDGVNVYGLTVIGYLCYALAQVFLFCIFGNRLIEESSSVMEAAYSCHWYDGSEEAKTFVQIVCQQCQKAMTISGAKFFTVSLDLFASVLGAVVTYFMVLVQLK
Description: (§1) For recombinant OBPs, we first need to obtain the OBPs related genes. DNA of A. gambiae s.s. female adults was extracted following the procedure used in a previous study. The predicted AgamOBPs and AgamORs were detected using standard PCR with specific respective primers which were designed using Primer Premier 5 (Premier Biosoft, California, USA; Table S1). Each PCR mixture contained 1 μl of A. gambiae s.s. […] (200 ng·ml^−1; previously extracted using a DNA extraction kit from Transgen Biotech, Beijing, China), 12.5 μl prime STAR Max Premix (2 ×), 1.5 μl of each primer ([…]), and […] sterilized H2O. The PCR cycling conditions were as follows: an initial denaturation at 94 °C for 40 s, followed by 35 cycles at […] for 40 s (denaturing), 59 °C for 50 s (annealing) and 72 °C for 3 min. The PCR products were verified and sent for sequencing. Recombinant proteins were generated by transforming plasmids containing the verified […] genes into Escherichia coli BL21 (DE3) cells. We then induced recombinant protein expression using 1 mM isopropyl ß-D-1-thiogalactopyranoside at 37 °C for 6 h. The recombinant proteins were purified using two rounds of […] ion affinity chromatography (GE Healthcare, Milwaukee, WI, USA), following the manufacturer's instructions[5],[53]; the His-tags were removed simultaneously using recombinant enterokinase (Novagen, Madison, WI, USA), following the manufacturer's instructions. The purified proteins were desalted using extensive dialysis. The size and purity of each desalted protein were determined using 15% sodium dodecylsulphate-polyacrylamide gel electrophoresis (SDS-PAGE)[55].
(§2) This assay assumes that the receptors are 100% active, and that each receptor can only bind to one ligand[56].
(§3) Recombinant proteins were dissolved in 50 mM Tris–HCl protein buffer to yield a final concentration of […], respectively. The fluorescence competitive binding were conducted in a 1-cm quartz cell and the fluorescence intensity F95S fluorescence spectrophotometer (Shanghai Lengguang Technology Co., Ltd., Shanghai, China) at 25 °C with the following parameters: excitation of 10 nm; emission slit of 10 nm; sensitivity of 2 s; gain value of 2; excitation wavelength of 337 nm; and an emission wavelength range of 370–500 nm, as a previous study.
(§4) First, the binding constant (Kd) for each recombinant protein to the 1-N-phenyl-naphthylamine (1-NPN) fluorescent probe was detected. In brief, 2 ml of protein solution and 2 μl of 1-NPN solution were added to the quartz cell and thoroughly mixed for 1 min. Peak fluorescence was continuously recorded until it stabilized and began to decrease.
(§5) Next, the ligands were added to the quartz cell along with each receptor, in order to competitively bind to the fluorescent probe. In brief, 2 ml of protein solution and 2 ml of 1-NPN solution were added to the quartz cell, and the fluorescence peaks were scanned and recorded. Then, 2 μl of each ligand was added and allowed to sit for 1 min before the peak fluorescence was scanned and recorded. We then continued to add 2 μl aliquots of the ligand solution until the fluorescence was less than half of the initial value.
(§6) The binding curves were then linearized using a Scatchard plot, which calculates the concentration of the competitor that halves the initial fluorescence intensity (IC50).

AgamOBP20 = target: T2, AgamOBP20 (Anopheles gambiae, UniProt Q7Q9J3); assay: as above; parameters: species or system Anopheles gambiae s.s.
T2 sequence (Q7Q9J3 24-142): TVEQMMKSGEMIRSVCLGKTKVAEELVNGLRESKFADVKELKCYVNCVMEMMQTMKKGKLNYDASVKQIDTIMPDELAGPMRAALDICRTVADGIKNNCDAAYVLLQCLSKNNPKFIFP
Description: as §1, §2, §3, §4, §5, §6

AgamOBP5 = target: T3, AgamOBP5 (Anopheles gambiae, UniProt Q8T6R6); assay: as above; parameters: species or system Anopheles gambiae s.s.
T3 sequence (Q8T6R6 32-154): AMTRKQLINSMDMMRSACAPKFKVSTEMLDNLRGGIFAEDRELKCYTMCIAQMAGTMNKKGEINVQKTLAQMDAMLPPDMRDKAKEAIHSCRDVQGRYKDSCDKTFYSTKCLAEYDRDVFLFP
Description: as §1, §2, §3, §4, §5, §6

AgamOBP4 = target: T4, AgamOBP4 (Anopheles gambiae, UniProt Q8T6R7); assay: as above; parameters: species or system Anopheles gambiae s.s.
T4 sequence (Q8T6R7 26-150): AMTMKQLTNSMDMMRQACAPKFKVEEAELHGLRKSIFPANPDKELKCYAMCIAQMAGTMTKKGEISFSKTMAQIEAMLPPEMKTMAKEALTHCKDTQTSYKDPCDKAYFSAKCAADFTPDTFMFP
Description: as §1, §2, §3, §4, §5, §6

SMILES	repellent rate for 50% of individuals (RQ50) ([1]; Y-tube, quantity series 0.01-100 nmol on cotton ball, Probit analysis) [nmol]	Lg(RQ50) ([1]; regression of citronellal quantity vs repellent rate, Fig. 1)	IC50 (AgamORC7; competition with 1-NPN, 25 °C) [nM]	Ki (AgamORC7; competition with 1-NPN, 25 °C) [nM]	binding of citronellal in words (AgamOBP20; competition with 1-NPN)	binding of citronellal in words (AgamOBP5; competition with 1-NPN)	IC50 (AgamOBP4; competition with 1-NPN, 25 °C) [nM]	Ki (AgamOBP4; competition with 1-NPN, 25 °C) [nM]	Kd (AgamORC7; Fig. 5 panel d, Scatchard, unit inferred) [nM]	Kd (AgamOBP20) [nM]	Kd (AgamOBP5) [nM]	Kd (AgamOBP4) [nM]
CC(C)=CCCC(C)CC=O (stereo not drawn) [citronellal]	4.02	0.604	2230	1570	could not reduce fluorescent rate down below 50%; also recorded: cannot bind well	could not reduce fluorescent rate down below 50%; also recorded: cannot bind well	1230	710				
c1ccc(Nc2cccc3ccccc23)cc1 [1-NPN, 1-N-phenyl-naphthylamine]									1120	2170	2440	1140
